Laboratory results as given in PubChem BioAssay AID602211 (Sanford-Burnham Center for Chemical Genomics, 2012).
Activity calls are given as the source filed them.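 The calls were made as follows: active = mean IC50 at or below 10 µM; inactive = the rest.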

Each molecule was assayed on H9c2 cardiomyocytes, H2O2 protection, ATPLite viability, 2 h (assay: protection of H9c2 cardiomyocytes from H2O2 death, dose response, cell-based, ATPLite luminescence, set 2 (AID 602211);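 also: potency is for protection so actives keep ATP signal up against peroxide killing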).
COc1cccc(-c2nn(-c3ccccc3)cc2C(=O)Nc2nccs2)c1 was tested, and the IC50 was 12.8 µM (inactive). Cc1ccc(S(=O)(=O)N2CCN(C(=O)c3cc(=O)[nH]c4ccccc34)CC2)c(C)c1 showed an IC50 of 2.24 µM. Work on COc1ccc(CSc2nc3ccccc3c(=O)[nH]2)cc1F yielded an IC50 of 8.59 µM. COC(=O)c1cc2c(C)c(C)c3ccccn3c-2c1C(=O)OC was tested, and the IC50 was > 79 µM (inactive). With CC(=O)Nc1cc(-c2ccc(C(=O)NC3CC3)cc2)cn2c(-c3cccc(C(C)=O)c3)cnc12 the IC50 was 9.83 µM. CC(C)=NNc1cnnc2ccc([N+](=O)[O-])cc12 was tested, and the IC50 was 4.85 µM. In the case of COc1cc(NC(=O)c2csc(-c3ccncc3)n2)cc(C(=O)Nc2cccc(C(F)(F)F)c2)c1, the IC50 is reported as 2.7 µM. NS(=O)(=O)c1ccc(CCNc2ccn3nc(-c4ccc(OCCN5CCOCC5)cc4)cc3n2)cc1 showed an IC50 of 7.72 µM. O=C(COC(=O)c1cc(-c2cccnc2)nc2ccccc12)Nc1ccc(F)cc1F was tested, and the IC50 was 17.8 µM (inactive). With CC(=O)Nc1ccc(Nc2nc(-c3sc(NC(C)=O)nc3C)cs2)cc1 the IC50 was 12.2 µM (inactive). With CC(=O)Nc1cccc(-c2cc(NC(C)=O)c3ncc(-c4cccc(C(C)=O)c4)n3c2)c1 the IC50 was 38.4 µM (inactive). CC1Cc2ccccc2N1C(=O)c1cc2c(=O)n3ccccc3nc2n1C (stereo not drawn) was tested, and the IC50 was > 79 µM (inactive). For CCC(=O)Oc1cccc(C(=O)Nc2ccc(-c3nnc(-c4ccco4)o3)cc2)c1, the IC50 was > 79 µM (inactive). For COc1cc(/C=N/NC(=O)NC23CC4CC(CC(C4)C2)C3)ccc1OCC(N)=O, the IC50 was 2.84 µM. COc1ccc(-c2csc(NC(=O)c3cccc(N4C(=O)CCC4=O)c3)n2)cc1OC gave an IC50 of 5 µM. Molecule COc1cc(-c2cc(NC=O)c3ncc(-c4ccc(C(C)=O)cc4)n3c2)cc(OC)c1OC has an IC50 of 3.51 µM. In the case of COC(=O)c1ccccc1NC(=O)c1ccc2nccnc2c1, the IC50 is reported as 50.6 µM (inactive). For CC1CN(c2nn3c(=O)c4ccccc4nc3c3ccccc23)CC(C)O1 (stereo not drawn), the IC50 was 32.5 µM (inactive). NC(=O)COc1ccc2oc(=O)cc(-c3cc4ccccc4o3)c2c1 was tested, and the IC50 was 9.93 µM. For CCN(CC)S(=O)(=O)c1ccc(N2CCOCC2)c(NC(=O)c2cc(-c3ccccn3)nc3ccccc23)c1, the IC50 was 1.34 µM. With COc1ccc(NC(=O)c2cc(-c3ccc(OC)c(OC)c3)nc3ccccc23)c(OC)c1 the IC50 was 8.09 µM. O=C(NCC(=O)N(Cc1cccs1)C(C(=O)NC1CCCC1)c1ccco1)c1cccs1 (stereo not drawn) showed an IC50 of 6.37 µM. C[C@@H]1ON(C)[C@H]2C[C@H]3c4[nH]c5ccc(-c6ccc7c(c6)OCO7)cc5c4CCN3C[C@@H]12 was tested, and the IC50 was > 79 µM (inactive). CCn1c(SCC(=O)Nc2ccccc2N2CCCCC2)nc2c1c(=O)n(C)c(=O)n2C was tested, and the IC50 was > 79 µM (inactive). Cc1nnc2ccc(-c3cccc(NC(=O)c4ccc(Cl)nc4)c3)nn12 was tested, and the IC50 was 2.62 µM. With COc1ccccc1-c1cc(NC(C)=O)c2ncc(-c3cccc(C(C)=O)c3)n2c1 the IC50 was 11.1 µM (inactive). COc1ccc(CCNC(=O)C(=O)NCC2CCCN2S(=O)(=O)c2ccccc2)cc1OC (stereo not drawn) gave an IC50 of 6.18 µM. With CC(C)C1Nc2ccc(C(=O)N3CCN(c4ccccn4)CC3)cc2NC1=O (stereo not drawn) the IC50 was 22.9 µM (inactive). For COc1cc(OC)cc(-c2cc3nc(C)c(CCC(=O)Nc4nc(C)cs4)c(C)n3n2)c1, the IC50 was 4.8 µM. In the case of CCn1cc(C(=O)Nc2cccc(NC(C)=O)c2)c2cc(OC)c(OC)cc2c1=O, the IC50 is reported as 16.1 µM (inactive). O=C(Nc1cccc2cccnc12)c1ccc2sc([C@H]3C[C@H](O)[C@@H](CO)O3)nc2c1 showed an IC50 of 4.33 µM. O=C(N/N=C/c1ccc(-c2cccc([N+](=O)[O-])c2)o1)c1ccc([N+](=O)[O-])cc1 was tested, and the IC50 was 7 µM. O=C(CN1C(=O)C2CC=CCC2C1=O)Nc1nc(-c2ccc(F)cc2)cs1 (stereo not drawn) was tested, and the IC50 was > 79 µM (inactive). For N#Cc1c(-c2ccco2)cc(-c2cccnc2)nc1N, the IC50 was 11 µM (inactive). CC1Nc2ncnc(N3CCN(c4ccccc4)CC3)c2N(Cc2ccc(Br)cc2)C1=O (stereo not drawn) gave an IC50 of 6.65 µM. For COc1ccc(-c2cc(-c3nnc(COC(=O)C4CC4)o3)c3ccccc3n2)cc1OC, the IC50 was 4.39 µM. CCOC(=O)C1CCN(C(=O)c2ccc3c(=O)n4nc(Nc5ccccc5OC)sc4nc3c2)CC1 was tested, and the IC50 was 6.31 µM. Molecule COc1ccc2occ(C(=O)c3coc4ccc(O)c(CN(C)C)c34)c2c1 has an IC50 of 4.32 µM. For O=C(N/N=C/c1ccccn1)c1cc(-c2cccc3ccccc23)n[nH]1, the IC50 was 6.66 µM. Molecule COc1cc(NC(=O)c2cc([N+](=O)[O-])ccc2NC(=O)CN2CCN(c3ccccn3)CC2)cc(OC)c1 has an IC50 of 2.58 µM. COC(=O)c1ccc(C(NC(=O)OCc2ccccc2)/C(C)=C/[C@@H](C)C(=O)NCc2ccc(OC)c(OC)c2)cc1 (stereo partly drawn) was tested, and the IC50 was > 79 µM (inactive). For CC(=O)Nc1cc(C)nn1-c1nc2ccccc2s1, the IC50 was 14.6 µM (inactive). Work on COc1cc(-c2cc(C(=O)Nc3ccccc3N3CCOCC3)c3ccccc3n2)cc(OC)c1OC yielded an IC50 of 5.8 µM. With CC(C)(C)NC(=O)COC(=O)c1c2c(nc3ccccc13)CCC2 the IC50 was 14.6 µM (inactive). Cc1ccc(-c2nnc(NCc3nc4ccccc4[nH]3)c3ccccc23)cc1S(=O)(=O)N1CCOCC1 gave an IC50 of 4.11 µM. COc1ccc(-n2nc(C(=O)NCC(=O)Nc3cc(OC)c(OC)c(OC)c3)c3ccccc3c2=O)cc1Cl showed an IC50 of 3.02 µM. For Cc1ccc2cc3c(NC(=O)c4cccnc4)nn(C)c3nc2c1, the IC50 was 15.9 µM (inactive). In the case of Cc1[nH]c2ccccc2c1/C=N/NC(=O)c1cc(-c2ccccc2)n[nH]1, the IC50 is reported as 2.89 µM.
